The values that follow come from patent US20130252951A1, “7-HYDROXY-PYRAZOLO[1,5-A] PYRIMIDINE COMPOUNDS AND THEIR USE AS CCR2 RECEPTOR ANTAGONISTS” (Proximagen Limited, priority 2010, published 2013).

Molecules are shown by their SMILES. pKi: −log10 of the molar value.

Chain of human CCR2 (P41597 whole entry): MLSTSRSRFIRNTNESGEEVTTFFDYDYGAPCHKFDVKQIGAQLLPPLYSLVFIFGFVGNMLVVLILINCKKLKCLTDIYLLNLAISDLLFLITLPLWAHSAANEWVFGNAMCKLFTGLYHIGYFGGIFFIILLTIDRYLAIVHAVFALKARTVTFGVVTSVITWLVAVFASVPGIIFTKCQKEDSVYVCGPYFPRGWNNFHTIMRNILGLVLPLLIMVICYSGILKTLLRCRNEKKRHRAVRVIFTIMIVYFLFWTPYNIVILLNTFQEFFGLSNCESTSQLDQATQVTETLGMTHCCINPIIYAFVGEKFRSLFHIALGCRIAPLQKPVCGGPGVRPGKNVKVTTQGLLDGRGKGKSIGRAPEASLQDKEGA

The test has as its target human CCR2 (Homo sapiens, UniProt P41597). As to the kind of experiment: CCR2 functional calcium assay (FLIPR calcium flux, hMCP-1 challenge). The test is classed as cell-based. More on the design: expressed in transfected cells; host or cells: HEK293 EBNA cells. Particulars: HEK293 EBNA cells transfected with human CCR2, hMCP-1 challenge; read-out: Functional CCR2 fKi. The text has this:
The CCR2 receptor couples through the Gi/Gq signaling pathway and results in activation of calcium mobilization. The functional activity of test compounds was routinely tested by measuring the ability of compounds to antagonize CCR2 activity in a dose dependent manner, in HEK293 EBNA cells transfected with the human CCR2 receptor (hMCP-1 challenge), using a calcium flux Fluorescent Imaging Plate Reader FLIPR assay. Non-transfected HEK293 EBNA cells were used as control of non-specific response.
Briefly, test compounds were dissolved in dimethyl sulfoxide (DMSO) to a concentration of 10 mM and stored in matrix screenmate racks. The required amount of compound was transferred to 96-well compound plates on the day of assay and diluted in assay buffer to the required final concentration; dose-response measurements were assayed by making 1:3 serial dilutions to produce 10 point curves. The compounds were then transferred to 384-well assay plates ready for use. Top concentrations were adjusted depending on the potency of the compounds with a typical concentration range of 30 μM to 0.5 nM being used. The assay buffer used was HBSS buffer supplemented with 20 mM HEPES and 0.1% BSA, pH7.4. The loading/wash buffers were the same as the assay buffer.
Cells were suspended in culture medium at a density of 10000 cells/50 μl (the cell culture media composition was DMEM high glucose supplemented with 10% dialyzed FBS, 250 μg/ml Geneticin, and 400 μg/ml Hygromycin B), transferred to 384-well black/clear Costar plates (Costar #3712) (50 μl/well) and incubated at 37° C., in a 5% CO2/95% air humidified incubator for 16 h. The cells were washed with assay buffer at 37° C. using the Biotek ELx 405, washing 3 times, leaving 20 μl buffer in the well. 20 μl Fluo-4 (Fluo-4 stock solution (1 mM) was prepared by dissolving one vial of Fluo-4 (50 μg) in 45 μl of pluronic acid (240 mg/ml in DMSO). This stock solution of Fluo-4 was then diluted 250 times with loading buffer to give a Fluo-4 concentration of 4 μM. The dye solution (used within 2 h and kept away from light) was added to each well using a repeating multichannel pipette; the cells were then incubated at 37° C. for 60 min. Following the incubation, cells were washed in assay buffer at 37° C. using the Biotek ELx 405, washing 3 times, leaving 40 μl in each well and incubated for 10 min at 37° C. before use. A combined agonist/antagonist protocol was used. Compound (antagonist) was added to the cell plate using the FLIPR. Basal fluorescence was recorded every second for 10 seconds prior to compound addition (10 μl) and fluorescence recorded every second for 1 minute then every 6 seconds for a further 1 minute. Agonist (MCP-1) was then added using the FLIPR and fluorescence recorded as described above.
The positive control (agonist) was human recombinant MCP-1 which was stored as a stock concentration of 10 μM in distilled water and stored at −20° C. (maximal response: 30 nM; EC50 dose: 3-5 nM). The reference compound (antagonist) was RS102895 which was used as a 10 mM DMSO solution and stored at −20° C.
FLIPR responses were measured as peak minus basal fluorescence intensity and were expressed as a percentage of EC50 MCP-1 challenge. Curve-fitting and parameter estimation were carried out using GraphPad Prism 4.0 (GraphPad Software Inc., San Diego, Calif.).
In the case of `CC(C)c1nc2ccnn2c(O)c1Cc1ccc(Cl)c(Cl)c1` [Example 41, 6-[(3,4-Dichlorophenyl)methyl]-5-(propan-2-yl)pyrazolo[1,5-a]pyrimidin-7-ol], the pKi was greater than 8.00.
As for `CC(C)c1nc2ccnn2c(O)c1Cc1cc(Cl)cc(Cl)c1` [Example 42, 6-[(3,5-Dichlorophenyl)methyl]-5-(propan-2-yl)pyrazolo[1,5-a]pyrimidin-7-ol], the figure is greater than 8.00; as for `Oc1c(Cc2cccc(Cl)c2)c(C2CCC2)nc2ccnn12` [Example 43, 6-[(3-Chlorophenyl)methyl]-5-cyclobutyl-pyrazolo[1,5-a]pyrimidin-7-ol], greater than 8.00.
The same measure for `Oc1c(Cc2ccc(Cl)cc2)c(C2CCC2)nc2ccnn12` [Example 44, 6-[(4-Chlorophenyl)methyl]-5-cyclobutyl-pyrazolo[1,5-a]pyrimidin-7-ol]: greater than 8.00.
The same measure for `Oc1c(Cc2ccc(F)c(F)c2)c(C2CCC2)nc2ccnn12` [Example 45, 5-Cyclobutyl-6-[(3,4-difluorophenyl)-methyl]pyrazolo[1,5-a]pyrimidin-7-ol]: greater than 8.00; for `Oc1c(Cc2ccc(F)c(Cl)c2)c(C2CCC2)nc2ccnn12` [Example 46, 6-[(3-Chloro-4-fluorophenyl)methyl]-5-cyclobutylpyrazolo[1,5-a]pyrimidin-7-ol]: greater than 8.00.
Take `Oc1c(Cc2ccc(F)c(C(F)(F)F)c2)c(C2CCC2)nc2ccnn12` [Example 47, 5-Cyclobutyl-6-{[4-fluoro-3-(trifluoro-methyl)phenyl]methyl}pyrazolo[1,5-a]-pyrimidin-7-ol]: the pKi was greater than 8.00.
With `Oc1c(Cc2cc(F)cc(C(F)(F)F)c2)c(C2CCC2)nc2ccnn12` [Example 48, 5-Cyclobutyl-6-{[3-fluoro-5-(trifluoro-methyl)phenyl]methyl}pyrazolo[1,5-a]-pyrimidin-7-ol], the pKi was greater than 8.00.
The same measure for `Oc1c(Cc2cc(F)c(F)c(F)c2)c(C2CCC2)nc2ccnn12` [Example 49, 5-Cyclobutyl-6-[(3,4,5-trifluorophenyl)-methyl]pyrazolo[1,5-a]pyrimidin-7-ol]: greater than 8.00; for `Oc1c(Cc2ccc(Cl)c(Cl)c2)c(C2CCC2)nc2ccnn12` [Example 50, 5-Cyclobutyl-6-[(3,4-dichlorophenyl)-methyl]pyrazolo[1,5-a]pyrimidin-7-ol]: greater than 8.00; for `COCc1nc2ccnn2c(O)c1Cc1ccc(Cl)cc1` [Example 51, 6-[(4-Chlorophenyl)methyl]-5-(methoxy-methyl)pyrazolo[1,5-a]pyrimidin-7-ol]: 7.00 to 8.00.
The same measure for `COCc1nc2ccnn2c(O)c1Cc1ccc(Cl)c(F)c1` [Example 52, 6-[(4-Choro-3-fluorophenyl)methyl]-5-(methoxymethyl)pyrazolo[1,5-a]pyrimidin-7-ol]: 7.00 to 8.00; for `COCc1nc2ccnn2c(O)c1Cc1ccc(Cl)c(Cl)c1` [Example 53, 6-[(3,4-Dichlorophenyl)methyl]-5-(methoxymethyl)pyrazolo[1,5-a]pyrimidin-7-ol]: greater than 8.00; for `COCCc1nc2ccnn2c(O)c1Cc1ccc(Cl)cc1` [Example 54, 6-[(4-Chlorophenyl)methyl]-5-(2-methoxyethyl)pyrazolo[1,5-a]pyrimidin-7-ol]: 7.00 to 8.00.
As for `Oc1c(Cc2ccc(Cl)c(Cl)c2)c(C(F)(F)F)nc2ccnn12` [Example 55, 6-[(3,4-Dichlorophenyl)methyl]-5-(trifluoromethyl)pyrazolo[1,5-a]pyrimidin-7-ol], the figure is greater than 8.00; as for `Oc1c(Cc2ccc(Cl)c(Cl)c2)c(C2CCCO2)nc2ccnn12` (centres unmarked) [Example 56, 6-[(3,4-Dichlorophenyl)methyl]-5-(oxolan-2-yl)pyrazolo[1,5-a]pyrimidin-7-ol], greater than 8.00; as for `Cc1nc2c(C)cnn2c(O)c1Cc1ccc(Cl)cc1` [Example 57, 6-[(4-Chlorophenyl)methyl]-3,5-dimethyl-pyrazolo[1,5-a]pyrimidin-7-ol], 6.00 to 7.00.
As to `Cc1nc2c(Br)cnn2c(O)c1Cc1ccc(Cl)cc1` [Example 58, 3-Bromo-6-[(4-chlorophenyl)methyl]-5-methylpyrazolo[1,5-a]pyrimidin-7-ol], the pKi was 7.00 to 8.00.
As to `Cc1nc2c(C#N)cnn2c(O)c1Cc1ccc(Cl)cc1` [Example 59, 6-[(4-Chlorophenyl)methyl]-7-hydroxy-5-methylpyrazolo[1,5-a]pyrimidine-3-carbonitrile], the pKi was 6.00 to 7.00.
As for `Cc1nc2ccnn2c(O)c1Oc1ccc(Cl)c(Cl)c1` [Example 60, 6-(3,4-Dichlorophenoxy)-5-methyl-pyrazolo[1,5-a]pyrimidin-7-ol], the figure is 7.00 to 8.00.
For `CCc1nc2ccnn2c(O)c1Oc1cccc(C(F)(F)F)c1` [Example 61, 5-Ethyl-6-[3-(trifluoromethyl)phenoxy] pyrazolo[1,5-a]pyrimidin-7-ol], the pKi is 6.00 to 7.00.
The same measure for `CCc1nc2ccnn2c(O)c1Oc1ccc(F)c(F)c1` [Example 62, 6-(3,4-Difluorophenoxy)-5-ethyl-pyrazolo[1,5-a]pyrimidin-7-ol]: greater than 8.00.
The same measure for `CCc1nc2ccnn2c(O)c1Oc1ccc(F)c(Cl)c1` [Example 63, 6-(3-Chloro-4-fluorophenoxy)-5-ethyl-pyrazolo[1,5-a]pyrimidin-7-ol]: 7.00 to 8.00; for `CC(C)c1nc2ccnn2c(O)c1Oc1ccc(Br)cc1` [Example 66, 6-(4-Bromophenoxy)-5-(propan-2-yl)-pyrazolo[1,5-a]pyrimidin-7-ol]: greater than 8.00.
As for `CC(C)c1nc2ccnn2c(O)c1Oc1ccc(Cl)c(F)c1` [Example 67, 6-(4-Chloro-3-fluorophenoxy)-5-(propan-2-yl)pyrazolo[1,5-a]pyrimidin-7-ol], the figure is greater than 8.00; as for `CC(C)c1nc2ccnn2c(O)c1Oc1ccc(Cl)c(Cl)c1` [Example 68, 6-(3,4-diChlorophenoxy)-5-(propan-2-yl)-pyrazolo[1,5-a]pyrimidin-7-ol], greater than 8.00; as for `COC(=O)c1nc2ccnn2c(O)c1Cc1cccc(F)c1` [Example 69, Methyl 6-[(3-fluorophenyl)methyl]-7-hydroxypyrazolo[1,5-a]pyrimidine-5-carboxylate], 7.00 to 8.00.
Regarding `CCOC(=O)c1nc2ccnn2c(O)c1Cc1cccc(C(F)(F)F)c1` [Example 71, Ethyl 7-hydroxy-6-{[3-(trifluoromethyl)-phenyl]methyl}pyrazolo[1,5-a]pyrimidine-5-carboxylate], the pKi is 7.00 to 8.00.
The same measure for `CCOC(=O)c1nc2ccnn2c(O)c1Cc1cccc(F)c1` [Example 73, Ethyl 6-[(3-fluorophenyl)methyl]-7-hydroxypyrazolo[1,5-a]pyrimidine-5-carboxylate]: 6.00 to 7.00; for `CCOC(=O)c1nc2ccnn2c(O)c1Cc1ccc(Cl)c(F)c1` [Example 74, Ethyl 6-[(4-chloro-3-fluorophenyl)methyl]-7-hydroxy pyrazolo[1,5-a]pyrimidine-5-carboxylate]: greater than 8.00.
As for `CCOC(=O)c1nc2ccnn2c(O)c1Oc1ccc(Cl)c(F)c1` [Example 75, Ethyl 6-(4-chloro-3-fluorophenoxy)-7-hydroxypyrazolo[1,5-a]pyrimidine-5-carboxylate], the figure is 7.00 to 8.00; as for `CCOC(=O)c1nc2ccnn2c(O)c1Oc1ccc(Cl)c(Cl)c1` [Example 76, Ethyl 6-(3,4-dichlorophenoxy)-7-hydroxy-pyrazolo[1,5-a]pyrimidine-5-carboxylate], 7.00 to 8.00.
